Measurements reported in patent publication US8129409B2, “Piperidine derivatives and cosmetic compositions thereof” (L'Oreal, priority 2004, dated 2012).

Assays:
[1] = system: human striated muscle cells innervated with explants of rat embryonic rachidian ganglia and spinal cord; assay: nerve/muscle coculture model, muscle fibre contractions; type: cell-based
Description: The compound of Example 1 was tested on a model of nerve/muscle coculture, which makes it possible to recreate a motor arc by innervating human striated muscle cells with explants of rat embryonic rachidian ganglia and spinal cord.
Human muscle cells, obtained from samples of striated muscle from healthy donors, are inoculated into wells of cross section 1.8 cm^2 (24-well culture dishes). After culturing for ten days, these cells form a monolayer and fuse. At this stage, explants of embryonic spinal cord from a 13 day-old rat, containing the rachidian ganglia, are placed on the culture.
The growth of the neurites is visible beyond the spinal cord explant after one day of culture. The first contractions of the muscle fibres are observed after five to six days of coculture, and after three weeks all the muscle fibres in the region of the explants contract.
The cocultures are used after 21 days, when the muscle fibres are striated and contain mature differentiated neuromuscular junctions.
A muscle fibre showing regular contractions (at least 60 contractions per minute) is then selected from three different culture wells and the number of contractions is counted over 30 seconds. The test compound, diluted in DMSO, is then incubated for 60 seconds in these wells, at a concentration of 10^−5 M. At the end of incubation, the number of contractions is again counted over 30 seconds. […]

[2] = anti-wrinkle activity in vivo; conditions: no details given

Row | Compound | effect on muscle fibre contractions in the nerve/muscle coculture model ([1]; as demonstrated by the Applicant, no concentration given) | anti-wrinkle activity in vivo [2] | contractions of the fibre as % of its contractions before addition of the compound ([1]; 10^−5 M, diluted in DMSO, 60 seconds incubation (one minute after adding), contractions counted over 30 seconds, triplicate) [%]
1 | CN1C(=O)CN=C(c2ccccc2)c2cc(Cl)ccc21 [diazepam] | inhibited muscle fibre contractions | demonstrated in vivo | 
2 | c1ccc(CCCC2CCN(CCCc3ccccc3)CC2)cc1 [Example 1, 1,4-bis(3-phenylpropyl)piperidine] |  |  | 55
